# According to patent US10485787B2, “Oral dosage forms of bendamustine and therapeutic use thereof” (ASTELLAS DEUTSCHLAND GMBH, priority 2010, dated 2019):
# Where a name gives a salt, the structure may show the parent alone.
# Assays:
# [1] = Phase 1 crossover study, plasma pharmacokinetics of bendamustine, M3 and M4 (Example 23)
# Experimental: 14 patients who were suffering from multiple myeloma, B-cell type chronic lymphocytic leukemia or advanced indolent non-Hodgkin's lymphoma were enrolled and were treated with bendamustine. […] After signing the informed consent form and following the screening period (days −21 to −2), eligible patients were assigned a patient number which was specific for each study site. Patients were randomized to receive one of the following on day 1 followed by the other on day 8: • a single oral dose of 110.2 mg (2×55.1 mg) bendamustine HCl • a single intravenous dose of 100 mg bendamustine HCl
# Bendamustine was provided a) orally as capsules, a LFHC formulation (liquid-filled, hard-shell capsule) and b) intravenously as a solution after reconstituting a powder for the preparation of a solution for injection. The LFHC formulation (per capsule) was prepared from 55.1 mg bendamustine hydrochloride, 1.2 mg methylparaben, 0.12 mg […], 0.12 mg butylated hydroxytoluene, 10.9 mg ethanol and 532.56 mg Cremophor® RH40. The vial with powder for concentrate for solution was the marketed product in Germany (Ribomustine®) which contains per vial 100 mg of bendamustine hydrochloride and mannitol as an excipient. This product was reconstituted with water for injection to a final concentration of 2.5 mg/ml of bendamustine HCl and was further diluted with 0.9% NaCl until about 500 ml before administration to the patient, in accordance with the instructions of the package insert.
# Patients were admitted to the study site for 2 periods; days −1 to 2 (period 1) and days 7 to 9 (period 2). A total of 12 patients was to be randomized to receive treatment. Six patients were to receive treatment with a single oral dose of 110.2 mg (2×55.1 mg) bendamustine HCl (day 1) followed by a single intravenous dose of 100 mg bendamustine HCl (day 8) while 6 other patients were to receive treatment in the alternate order. Patients underwent a washout period of at least 7 days between treatments.
# After oral and intravenous administration of bendamustine the concentration of bendamustine, as well as that of the active metabolites of bendamustine (M3 and M4), were determined in plasma and urine samples on day 1 and day 8. Patients returned to the study site for an end-of-study visit 7 to 14 days after completion of the second treatment period, or after early discharge/withdrawal. Subsequently the pharmacokinetic parameters of bendamustine and its metabolites were calculated.
# [2] = Phase 1 crossover study, urine pharmacokinetics of bendamustine, M3 and M4 (Example 23); assay type: in vivo, patients; conditions: for percentage of the dose excreted in urine as the metabolite: oral administration; for %Aeinf / %Aelast / CL renal: urine, Bendamustine HCl; for CL renal: human; for percentage of the dose excreted in urine unchanged: oral bendamustine
# Experimental: Bendamustine was provided a) orally as capsules, a LFHC formulation (liquid-filled, hard-shell capsule) and b) intravenously as a solution after reconstituting a powder for the preparation of a solution for injection. The LFHC formulation (per capsule) was prepared from 55.1 mg bendamustine hydrochloride, 1.2 mg methylparaben, 0.12 mg polyparaben, 0.12 mg butylated hydroxytoluene, 10.9 mg ethanol and 532.56 mg Cremophor® RH40. The vial with powder for concentrate for solution was the marketed product in Germany (Ribomustine®) which contains per vial 100 mg of bendamustine hydrochloride and mannitol as an excipient. This product was reconstituted with water for injection to a final concentration of 2.5 mg/ml of bendamustine HCl and was further diluted with 0.9% NaCl until about 500 ml before administration to the patient, in accordance with the instructions of the package insert.
# After oral and intravenous administration of bendamustine the concentration of bendamustine, as well as that of the active metabolites of bendamustine (M3 and M4), were determined in plasma and urine samples on day 1 and day 8. […] Subsequently the pharmacokinetic parameters of bendamustine and its metabolites were calculated.
# [3] = cited from earlier work
# [4] = a range of organic solvents; cited from earlier work
# [5] = Phase 1 crossover study, safety and tolerability (Example 23); assay type: in vivo, patients; conditions: oral and intravenous single doses
# Experimental: Bendamustine was provided a) orally as capsules, a LFHC formulation (liquid-filled, hard-shell capsule) and b) intravenously as a solution after reconstituting a powder for the preparation of a solution for injection. The LFHC formulation (per capsule) was prepared from 55.1 mg bendamustine hydrochloride, 1.2 mg methylparaben, 0.12 mg polyparaben, 0.12 mg butylated hydroxytoluene, 10.9 mg ethanol and 532.56 mg Cremophor® RH40. The vial with powder for concentrate for solution was the marketed product in Germany (Ribomustine®) which contains per vial 100 mg of bendamustine hydrochloride and mannitol as an excipient. […]
# [6] = Stability of aqueous solution of bendamustine as a function of pH; assay type: physicochemical
structure (smiles),measurement,setting,value
"Cn1c(C(O)CCC(=O)O)nc2cc(N(CCCl)CCCl)ccc21 (stereo not drawn) [Example M3, γ-hydroxybendamustine]","Mean AUCinf of bendamustine, times higher than for the metabolite",[1]; oral administration,10.6 times
same,percentage of the dose excreted in urine as the metabolite,[2],0.6%
same,%Aeinf,"[2]; 100 mg intravenously, Mean",0.459%
same,%Aelast,"[2]; 100 mg intravenously, Mean",0.457%
same,%Aeinf,"[2]; 100 mg intravenously, Median",0.354%
same,%Aelast,"[2]; 100 mg intravenously, Median",0.353%
same,%Aeinf,"[2]; 100 mg intravenously, Min-max",0.018-1.6%
same,%Aelast,"[2]; 100 mg intravenously, Min-max",0.018-1.6%
same,%Aeinf,"[2]; 110.2 mg orally, Mean",0.611%
same,%Aelast,"[2]; 110.2 mg orally, Mean",0.61%
same,%Aeinf,"[2]; 110.2 mg orally, Median",0.537%
same,%Aelast,"[2]; 110.2 mg orally, Median",0.553%
same,%Aeinf,"[2]; 110.2 mg orally, Min-max",0.13-1.5%
same,%Aelast,"[2]; 110.2 mg orally, Min-max",0.12-1.6%
"O=C(O)CCCc1nc2cc(N(CCCl)CCCl)ccc2[nH]1 [Example M4, N-desmethylbendamustine]","Mean AUCinf of bendamustine, times higher than for the metabolite",[1]; oral administration,88 times
same,percentage of the dose excreted in urine as the metabolite,[2],0.1%
same,%Aeinf,"[2]; 100 mg intravenously, Mean",0.081%
same,%Aelast,"[2]; 100 mg intravenously, Mean",0.086%
same,%Aeinf,"[2]; 100 mg intravenously, Median",0.045%
same,%Aelast,"[2]; 100 mg intravenously, Median",0.043%
same,%Aeinf,"[2]; 100 mg intravenously, Min-max",0.0039-0.17%
same,%Aelast,"[2]; 100 mg intravenously, Min-max",0.0028-0.21%
same,%Aeinf,"[2]; 110.2 mg orally, Mean",0.109%
same,%Aelast,"[2]; 110.2 mg orally, Mean",0.113%
same,%Aeinf,"[2]; 110.2 mg orally, Median",0.104%
same,%Aelast,"[2]; 110.2 mg orally, Median",0.104%
same,%Aeinf,"[2]; 110.2 mg orally, Min-max",0.034-0.22%
same,%Aelast,"[2]; 110.2 mg orally, Min-max",0.019-0.21%
Cn1c(CCCC(=O)O)nc2cc(N(CCCl)CCCl)ccc21 [bendamustine hydrochloride],AUC(0-inf),"[1]; human, plasma, iv, 100 mg",4790 ng·h/mL
same,AUC(0-t),"[1]; human, plasma, iv, 100 mg",4780 ng·h/mL
same,Cmax,"[1]; human, plasma, iv, 100 mg",5900 ng/mL
same,Vd,"[1]; human, plasma, iv, 100 mg, Vss, plasma, Bendamustine HCl, 100 mg intravenously, Mean",10.3 L
same,Vd,"[1]; human, plasma, iv, 100 mg, Vz, Bendamustine HCl, 100 mg intravenously, Mean",14.7 L
same,half-life,"[1]; human, plasma, iv, 100 mg, t1/2, plasma, Bendamustine HCl, 100 mg intravenously, Mean",30.2 min
same,Tmax,"[1]; human, plasma, iv, 100 mg, Bendamustine HCl, 100 mg intravenously, Mean",31.4 min
same,AUC(0-inf),"[1]; human, plasma, po, 110.2 mg",3900 ng·h/mL
same,AUC(0-t),"[1]; human, plasma, po, 110.2 mg",3890 ng·h/mL
same,Cmax,"[1]; human, plasma, po, 110.2 mg",3170 ng/mL
same,Vd/F,"[1]; human, plasma, po, 110.2 mg",20.2 L
same,half-life,"[1]; human, plasma, po, 110.2 mg, t1/2, plasma, Bendamustine HCl, 110.2 mg orally, Mean",27.7 min
same,Tmax,"[1]; human, plasma, po, 110.2 mg, Bendamustine HCl, 110.2 mg orally, Mean",56.8 min
same,CL,"[1]; plasma, Bendamustine HCl, 100 mg intravenously, Mean",21.2 L/h
same,CL renal,"[2]; iv, 100 mg, 100 mg intravenously, Mean",6.42 mL/min
same,CL renal,"[2]; iv, 100 mg, 100 mg intravenously, Median",3.37 mL/min
same,CL renal,"[2]; iv, 100 mg, 100 mg intravenously, Min-max",1 to 23.3 mL/min
same,CL renal,"[2]; po, 110.2 mg, 110.2 mg orally, Mean",13.1 mL/min
same,CL renal,"[2]; po, 110.2 mg, 110.2 mg orally, Median",13 mL/min
same,CL renal,"[2]; po, 110.2 mg, 110.2 mg orally, Min-max",3 to 33.3 mL/min
same,%Aeinf,"[2]; 100 mg intravenously, Mean",2.07%
same,%Aelast,"[2]; 100 mg intravenously, Mean",2.07%
same,%Aeinf,"[2]; 100 mg intravenously, Median",1.22%
same,%Aelast,"[2]; 100 mg intravenously, Median",1.23%
same,%Aeinf,"[2]; 100 mg intravenously, Min-max",0.27-8.8%
same,%Aelast,"[2]; 100 mg intravenously, Min-max",0.27-8.8%
same,%Aeinf,"[2]; 110.2 mg orally, Mean",2.64%
same,%Aelast,"[2]; 110.2 mg orally, Mean",2.66%
same,%Aeinf,"[2]; 110.2 mg orally, Median",2.23%
same,%Aelast,"[2]; 110.2 mg orally, Median",2.23%
same,%Aeinf,"[2]; 110.2 mg orally, Min-max",0.40-5.8%
same,%Aelast,"[2]; 110.2 mg orally, Min-max",0.40-5.9%
same,time at which maximal plasma levels were detectable,"[3]; oral capsules, 250-350 mg, 7 patients (Preiss 1985)",≤ 1 h
same,"oral bioavailability, inter-individual range","[3]; similar study, Preiss et al. 1989",25-121%
same,solubility in organic solvents,[4],slightly or very slightly soluble
"Cn1c(CCCC(=O)O)nc2cc(N(CCCl)CCCl)ccc21 [bendamustine, 4-[5-[bis(2-chloroethyl)amino]-1-methylbenzimidazo-2-yl]butanoic acid]",clearance,"[1]; human, plasma, iv, 100 mg",353 mL/min
same,Vd,"[1]; human, plasma, iv, 100 mg, Mean VSS, intravenous administration",10.3 L
same,Vd,"[1]; human, plasma, iv, 100 mg, Mean VZ, intravenous administration",14.7 L
same,half-life,"[1]; human, plasma, iv, 100 mg, Mean t1/2, intravenous administration",~30 min
same,half-life,"[1]; human, plasma, po, 110.2 mg, Mean t1/2, oral intake",~30 min
same,Tmax,"[1]; human, plasma, po, 110.2 mg, individual values, oral administration",15 to 108 min
same,Tmax,"[1]; human, plasma, po, 110.2 mg, oral administration",~57 min
same,percentage of the dose excreted in urine unchanged,[2],2.6%
same,percentage of the dose excreted in urine unchanged,[2]; listed as Bendamustine,Approximately 2.6%
same,deaths during the study,[5],No deaths
same,pH values at which significant hydrolytic decomposition is observed,[6],higher than 5
same,"oral bioavailability, range","[3]; oral capsules, 250-350 mg, patients (Preiss 1985)",25-94%
